Several values for one entry are separate records, joined by “and”; a condition that tells them apart may be missing. Equal values may be shown once. Entries after “also recorded” stand apart in the source; their conditions may differ. Read-outs that look alike come from different tables or passages of the source.
Assays:
M2e [1] = system: M2e; parameters: species or system BALB/c mice; conditions: mouse, in vivo
[2] = system: Influenza virus (A/PR8/8/34 strain, H1N1); format: in vivo, BALB/c mice; conditions: 21 days
M2e [3] = system: M2e; parameters: species or system BALB/c mice; conditions: mouse, in vivo; remark: listed apart in the source
[4] = system: Influenza virus (A/PR8/8/34 strain, H1N1); parameters: species or system BALB/c mice; conditions: mouse, in vivo

| Sequence | anti-M2e antibody titer immediately before challenge (M2e [1]) | Survival rate [2] | anti-M2e antibody titer just before challenge (M2e [3]) | Survival rate [4] |
| --- | --- | --- | --- | --- |
| SLLTEVETPTRSEWECRCSDSSD [swM2e, reference compound] | high anti-M2e antibody titer; also recorded: almost no increase in an antibody titer | 4/10 and 8/10 |  |  |
| SLLTEVETPIRNEWGCRCNDSSD (Influenza A virus) [M2e, peptide of 23 amino acid residues, positions No. 2 to No. 24 of M2 in influenza virus type A, no cysteine inserted, reference compound] |  |  | could not induce an anti-M2e antibody titer | 3/8 |
